Results on 19 compounds are retold here after ChEMBL document CHEMBL1136474, “4-(4-alkylpiperazin-1-yl)phenyl group: a novel class of basic side chains for selective estrogen receptor modulators” (2003).

One experiment deals with Rattus norvegicus. Description: Plasma cholesterol lowering effect was determined in Sprague-Dawley rats at a dose of 1 mg/kg/day for 4 days. It counts as functional.
Experiment [1] deals with Estrogen receptor (Homo sapiens) (UniProt Q92731+P03372). Description: Binding affinity towards estrogen receptor (ER) using [3H]17-beta-estradiol as radioligand in human breast cancer MCF-7 cells relative to compound 1. It counts as cell-based. The conditions noted are these: MCF7.
Experiment [2] deals with T1, Estrogen receptor (Rattus norvegicus) (UniProt P06211+Q62986). The conditions noted are these: Uterus.
Description: Uterotrophic effect as uterine weight gain in rats at 1 mg/kg/day oral dose for 4 days
Experiment [3] addresses T1, Estrogen receptor (Rattus norvegicus). Description: Uterotrophic effect as uterine weight gain in rats at 10 mg/kg/day oral dose for 4 days. It is filed as functional, organism-based. Particulars: Uterus.

As for `Oc1ccc2c(c1)CCC21C=C(c2ccc(OCCN3CCCC3)cc2)c2cc(O)ccc21` (stereo unspecified), the Decrease in the experiment with Rattus norvegicus was determined as 17%. In addition, the relative binding affinity (RBA) in experiment [1] came out at 118.

In the case of `CCCN1CCN(c2ccc(C3=CC4(CCc5cc(O)ccc54)c4ccc(O)cc43)cc2)CC1` (stereo unspecified), the Decrease in the experiment with Rattus norvegicus turned out to be 55%. The compound further gave a relative binding affinity (RBA) in experiment [1] of 186. The same compound yielded a Uterotrophic effect in experiment [2] of 223.

Take `CN1CCN(c2ccc(C3=CC4(CCc5cc(O)ccc54)c4ccc(O)cc43)cc2)CC1` (stereo unspecified): the relative binding affinity (RBA) in experiment [1] is 207.

As to `Oc1ccc2c(c1)CCC21C=C(c2ccc(N3CCCCC3)cc2)c2cc(O)ccc21` (stereo unspecified), the Decrease in the experiment on Rattus norvegicus was found to be 51%. The compound also had a relative binding affinity (RBA) in experiment [1] of 125. Further, in experiment [3], the Increase came to 26.5%. Also, the Uterotrophic effect in experiment [2] amounted to 139.

Take `Oc1ccc2c(c1)CCC21C=C(c2ccc(OCCN3CCCCC3)cc2)c2cc(O)ccc21` (stereo unspecified): the Decrease in the experiment with Rattus norvegicus was determined as 44%.

Consider `CCC1CCCN(c2ccc(C3=CC4(CCc5cc(O)ccc54)c4ccc(O)cc43)cc2)CC1` (stereo unspecified), for which the Decrease in the experiment on Rattus norvegicus came out at 32%. In experiment [1], this compound displayed a relative binding affinity (RBA) of 387. In experiment [2], the Uterotrophic effect was determined as 114.

`CN(C)CCOc1ccc(C2=CC3(CCc4cc(O)ccc43)c3ccc(O)cc32)cc1` (stereo unspecified): the Decrease with Rattus norvegicus is given as 6%. The compound further came in with a relative binding affinity (RBA) in experiment [1] of 85.

As for `CCN(CC)CCOc1ccc(C2=CC3(CCc4cc(O)ccc43)c3ccc(O)cc32)cc1` (stereo unspecified), in the experiment with Rattus norvegicus, the Decrease came to 18%. In experiment [1], the relative binding affinity (RBA) was found to be 153.

For `CC(C)CN1CCN(c2ccc(C3=CC4(CCc5cc(O)ccc54)c4ccc(O)cc43)cc2)CC1` (stereo unspecified), in the experiment on Rattus norvegicus, the Decrease amounted to 87%. In experiment [1], the relative binding affinity (RBA) came to 42. In addition, in experiment [2], the Uterotrophic effect amounted to 185.

Turning to `Cc1cc(C2=CC3(CCc4cc(O)ccc43)c3ccc(O)cc32)ccc1OCCN1CCCCC1` (stereo unspecified), the Decrease in the experiment on Rattus norvegicus was 4.5%. For the same compound, the relative binding affinity (RBA) in experiment [1] was 122.

In the case of `Oc1ccc2c(c1)CCC21C=C(c2ccc(OCCCN3CCCCC3)cc2)c2cc(O)ccc21` (stereo unspecified), the Decrease in the experiment with Rattus norvegicus was found to be 8.5%. The compound also gave a relative binding affinity (RBA) in experiment [1] of 460.

As to `Cc1cc(OCCN2CCCCC2)ccc1C1=CC2(CCc3cc(O)ccc32)c2ccc(O)cc21` (stereo unspecified), in the experiment with Rattus norvegicus, the Decrease is reported as -12%. For the same compound, the relative binding affinity (RBA) in experiment [1] is 70.

As to `CC(C)N1CCN(c2ccc(C3=CC4(CCc5cc(O)ccc54)c4ccc(O)cc43)cc2)CC1` (stereo unspecified), the Decrease with Rattus norvegicus came to 21%. Further, in experiment [1], the relative binding affinity (RBA) amounted to 103.

For `CC1CCN(CCOc2ccc(C3=CC4(CCc5cc(O)ccc54)c4ccc(O)cc43)cc2)CC1` (stereo unspecified), the Decrease in the experiment on Rattus norvegicus turned out to be 18%. Moreover, in experiment [1], the relative binding affinity (RBA) was 428.

For `Oc1ccc2c(c1)CCC21C=C(c2ccc(CCCN3CCCCC3)cc2)c2cc(O)ccc21` (stereo unspecified), the Decrease in the experiment on Rattus norvegicus was found to be 6%. Further, in experiment [1], the relative binding affinity (RBA) is 956.

In turn, `Oc1ccc2c(c1)CCC21C=C(c2cccc(OCCN3CCCCC3)c2)c2cc(O)ccc21` (stereo unspecified) displayed a relative binding affinity (RBA) in experiment [1] of 47.

In the case of `CCN1CCN(c2ccc(C3=CC4(CCc5cc(O)ccc54)c4ccc(O)cc43)cc2)CC1` (stereo unspecified), the Decrease in the experiment with Rattus norvegicus is listed as 52%. In experiment [1], the relative binding affinity (RBA) was 181. In experiment [2], this compound registered a Uterotrophic effect of 208.

For `Oc1ccc2c(c1)CCC21C=C(c2ccc(OCCN3CCCCC3)c(F)c2)c2cc(O)ccc21` (stereo unspecified), the Decrease with Rattus norvegicus amounted to 16%. The same compound yielded a relative binding affinity (RBA) in experiment [1] of 247.

In the case of `Cc1cc(C2=CC3(CCc4cc(O)ccc43)c3ccc(O)cc32)cc(C)c1OCCN1CCCCC1` (stereo unspecified), the Decrease in the experiment with Rattus norvegicus is -9.1%. The compound further gave a relative binding affinity (RBA) in experiment [1] of 22.
